Experiments:
[1] = system: IMR-32; experiment: In vitro cytotoxicity against human cancerous neuroblastoma cells (IMR-32); type: functional, cell-based
[2] = system: NCI-H460; experiment: In vitro cytotoxicity against human lung carcinoma (NCI-H460) tumor cell line; type: functional, cell-based
[3] = system: DLD-1; experiment: In vitro cytotoxicity against human colon adenocarcinoma (DLD-1) tumor cell line; type: functional, cell-based
[4] = system: AR-42J cell line; experiment: In vitro cytotoxicity against rat pancreatic (AR-42J) tumor cell line; type: functional, cell-based
[5] = system: MOLT-4; experiment: In vitro cytotoxicity against human leukemia (MOLT-4) cell line; type: functional, cell-based
[6] = system: T98G; experiment: In vitro cytotoxicity against human glioblastoma (T-98G) tumor cell line; type: functional, cell-based
[7] = system: HeLa; experiment: In vitro cytotoxicity against human cervix adenocarcinoma (HeLa) tumor cell line; type: functional, cell-based
[8] = system: CHO-K1; experiment: In vitro cytotoxicity against chinese hamster ovary (CHO-K1) tumor cell line; type: functional, cell-based, Cricetulus griseus
[9] = system: MCF7; experiment: In vitro cytotoxicity against human breast carcinoma (MCF-7) tumor cell line; type: functional, cell-based
[10] = system: CFPAC-1; experiment: In vitro cytotoxicity against human pancreatic cancer (CFPAC-1) tumor cell line; type: functional, cell-based
[11] = system: HCT-116; experiment: In vitro cytotoxicity against human colon carcinoma (HCT116) tumor cell line; type: functional, cell-based
[12] = system: ACHN; experiment: In vitro cytotoxicity against human renal adenocarcinoma (ACHN) tumor cell line; type: functional, cell-based
[13] = system: DU-145; experiment: In vitro cytotoxicity against human Prostate carcinoma (DU145) tumor cell line; type: functional, cell-based
[14] = system: MCF7; experiment: In vitro cytotoxicity against human cancerous cells (MCF-7) was determined; type: functional, cell-based
[15] = system: NCI-H69; experiment: In vitro cytotoxicity against human cancerous cells (NCI-H69) was determined; type: functional, cell-based

Structure (SMILES) | IC50 ([1]; Homo sapiens, IMR-32) [nM] | IC50 [2] [nM] | IC50 [3] [nM] | IC50 [4] [nM] | IC50 [5] [nM] | IC50 [6] [nM] | IC50 [7] [nM] | IC50 ([8]; Cricetulus griseus, CHO-K1) [nM] | IC50 [9] [nM] | IC50 [10] [nM] | IC50 [11] [nM] | IC50 [12] [nM] | IC50 [13] [nM] | also measured
COc1ccc2cc(C3C(O)C(=O)N3c3cc(OC)c(OC)c(OC)c3)ccc2c1 (configuration not stated) | 89 |  |  |  |  |  |  |  |  |  |  |  |  | 
COc1ccc(C2C(OC)C(=O)N2c2cc(OC)c(OC)c(OC)c2)cc1N (configuration not stated) | > 1000 |  |  |  |  |  |  |  |  |  |  |  |  | 
COc1cc(N2C(=O)C(OC(C)=O)C2c2ccc([N+](=O)[O-])o2)cc(OC)c1OC (configuration not stated) | 811 |  |  |  |  |  |  |  |  |  |  |  |  | 
COc1cc(N2C(=O)C(OC(C)=O)C2c2ccc(N)o2)cc(OC)c1OC (configuration not stated) | > 1000 |  |  |  |  |  |  |  |  |  |  |  |  | 
COc1ccc(C2C(OC(C)=O)C(=O)N2c2cc(OC)c(OC)c(OC)c2)cc1[N+](=O)[O-] (configuration not stated) | 123 | 393 | 326 | 582 | 350 | 144 | 202 | 473 | 105 | 197 | 526 | 595 | 479 | 
COc1ccc(N2C(=O)C(O)C2c2cc(OC)c(OC)c(OC)c2)cc1 (configuration not stated) | > 1000 |  |  |  |  |  |  |  |  |  |  |  |  | 
COc1ccc(C2C(O)C(=O)N2c2cc(OC)c(OC)c(OC)c2)cc1 (configuration not stated) | 33 |  |  |  |  |  |  | 509 |  |  |  |  |  | IC50 [14]: 62 nM; IC50 [15]: 47 nM
COc1cc(N2C(=O)C(O)C2c2ccc3c(c2)OCO3)cc(OC)c1OC (configuration not stated) | 473 | 1440 | 905 | 1480 | 398 | 800 | 546 | 891 | 544 | 885 | 950 | 2120 | 3160 | IC50 ([1]; imr-32): 445 nM
COc1cc(N2C(=O)C(OC)C2c2ccc3c(c2)OCO3)cc(OC)c1OC (configuration not stated) | > 1000 |  |  |  |  |  |  |  |  |  |  |  |  | 
COc1ccc2cc(C3C(OC(C)=O)C(=O)N3c3cc(OC)c(OC)c(OC)c3)ccc2c1 (configuration not stated) | > 1000 |  |  |  |  |  |  |  |  |  |  |  |  | 
COc1cc(N2C(=O)C(O)C2c2ccc([N+](=O)[O-])o2)cc(OC)c1OC (configuration not stated) | > 1000 |  |  |  |  |  |  |  |  |  |  |  |  | 
COc1ccc(C2C(OC(C)=O)C(=O)N2c2cc(OC)c(OC)c(OC)c2)cc1 (configuration not stated) | 251 |  |  |  |  |  |  |  |  |  |  |  |  | 
COc1ccc(C2C(OC(C)=O)C(=O)N2c2cc(OC)c(OC)c(OC)c2)cn1 (configuration not stated) | > 1000 |  |  |  |  |  |  |  |  |  |  |  |  | 
COc1ccc(N2C(=O)C(OC(C)=O)C2c2cc(OC)c(OC)c(OC)c2)cc1 (configuration not stated) | > 1000 |  |  |  |  |  |  |  |  |  |  |  |  | 
COc1cc(N2C(=O)C(OC(C)=O)C2c2ccc3c(c2)OCO3)cc(OC)c1OC (configuration not stated) | 910 |  |  |  |  |  |  |  |  |  |  |  |  | 
COc1ccc(C2C(O)C(=O)N2c2cc(OC)c(OC)c(OC)c2)cn1 (configuration not stated) | > 1000 |  |  |  |  |  |  |  |  |  |  |  |  | 
COc1ccc(C2C(O)C(=O)N2c2cc(OC)c(OC)c(OC)c2)cc1N (configuration not stated) | 37 | 184 | 130 | 62.1 | 71.7 | 109 | 63.9 | 544 | 55 | 50.2 | 140 | 91.2 | 380 | IC50 [14]: 81 nM; IC50 ([1]; imr-32): 38.3 nM; IC50 ([8]; cho-k1): 411 nM; IC50 [15]: 25 nM
COc1cc(C2C(O)C(=O)N2c2ccc3c(c2)OCO3)cc(OC)c1OC (configuration not stated) | > 1000 |  |  |  |  |  |  |  |  |  |  |  |  | 
COc1cc(C2C(OC(C)=O)C(=O)N2c2ccc3c(c2)OCO3)cc(OC)c1OC (configuration not stated) |  | > 10000 | > 10000 | > 10000 | > 10000 | > 10000 | > 10000 | > 10000 | > 10000 | > 10000 | > 10000 | > 10000 | > 10000 | IC50 ([1]; imr-32): > 10000 nM
COc1ccc(C2C(O)C(=O)N2c2cc(OC)c(OC)c(OC)c2)cc1[N+](=O)[O-] (configuration not stated) | 38 | 425 | 59.1 | 212 | 74 | 49.8 | 40 | 236 | 37.1 | 42.1 | 68.8 | 29.2 | 91.9 | IC50 [14]: 97 nM; IC50 ([1]; imr-32): 41.4 nM; IC50 ([8]; cho-k1): 416 nM; IC50 [15]: 74 nM
COc1ccc(C2C(OC(C)=O)C(=O)N2c2cc(OC)c(OC)c(OC)c2)cc1N (configuration not stated) | 73.1 | 449 | 394 | 219 | 372 | 145 | 262 | 462 | 70.5 | 204 | 368 | 150 | 430 | IC50 [14]: 200 nM; IC50 ([8]; cho-k1): 509 nM; IC50 [15]: 41 nM
COc1cc(N2C(=O)C(OC(C)=O)C2c2ccc(N(C)C)cc2)cc(OC)c1OC (configuration not stated) | 520 |  |  |  |  |  |  |  |  |  |  |  |  | 
COc1ccc(C2C(OC)C(=O)N2c2cc(OC)c(OC)c(OC)c2)cc1[N+](=O)[O-] (configuration not stated) |  | > 10000 | > 10000 | > 10000 | > 10000 | > 5000 | > 10000 | > 10000 | > 10000 | > 10000 | > 10000 | > 10000 | > 10000 | IC50 ([1]; imr-32): > 10000 nM

Reference: ChEMBL document CHEMBL1147534, “Examination of the 1,4-disubstituted azetidinone ring system as a template for combretastatin A-4 conformationally restricted analogue design” (Bioorg Med Chem Lett, 2004)
